According to US20260283990A1, “COMPOUNDS FOR TREATING RETT SYNDROME AND OTHER DISORDERS” (UNRAVEL BIOSCIENCES, INC., priority 2023, published 2026):
“Also recorded” adds a separate entry of the source. Where two headings read alike, the source gives them in different places. Square brackets hold non-standard residues; d marks the D form. Peptide text beside a SMILES is read from it. αMeP = C[C@@]1(C(=O)O)CCCN1

How the values were obtained:
[1] = test system: brain and muscle gene networks and pathways; assay: RNAseq of brain and muscle of dosed mice analysed with BioNav / Reactome; type: in vivo, C57B/L6 mice
Method: FIGS. 2A-2B. BioNav™ plots organized by chemical structure similarity of 40,000 compounds. Differential scores of predicted drugs mimicking vorinostat- or RVLOO2-dosed mouse brain (FIG. 2A) or femoral muscle (FIG. 2B) are plotted. Cluster of HDAC inhibitors is circled (FIG. 2B).
FIGS. 3A-3E. […] Genes associated with network level changes in mice treated with vorinostat or RVL002 were analyzed and sorted according to Reactome.org pathways (91). RVL002 engages pathways in the brain and muscle tissues similar to those resulting from vorinostat dosing (FIG. 3A). […] RVL002 engages MeCP2 pathways in the brain and muscle tissues (FIG. 3E).
Brain and muscle tissues from these mice were submitted to RNA sequencing (RNAseq) and analyzed on our BioNav™ generated from the network model of 40,000 compounds with transcriptomic data. […] By taking our calculated interacting gene sets we identified genes and networks unique to RVL002 (FIGS. 3A-3E). The gene expression profiles of the brains of mice treated with vorinostat is largely due to its highly brain-permeable metabolite and this profile is closely mimicked by RVL002 while RVL002 increased bioavailability and biodistribution is reflected in a proportionally more extensive number of genes whose expression levels are altered. The top 4 pathways are associated with MeCP2 despite using wild-type C57B/L6 mice (Table 2), and several other pathways associated with MeCP2 are identified, albeit with lower statistical significance (Table 3).

[2] = Pharmacokinetic (PK) assay of vorinostat, oral vs. IP; type: in vivo
[3] = Pharmacokinetic study in C57BL/6J mice (plasma and tissues); type: in vivo
Mecp2-null male mice [4] = assay: Vorinostat and trofinetide in the MeCP2-null mouse model; type: in vivo; details: daily IP from P30
Excerpt: (§1) Briefly, Xenopus embryos at the 4-cell stage were microinjected with Cas9 protein and guide RNA complex aimed at 3 sites of the MeCP2 gene corresponding to DNA binding and the mutation locations of the most severe patient cases. Embryos could develop into free-swimming tadpoles, and no effect on viability was observed relative to controls. Tadpoles presented a spectrum of behavioral phenotypes, including seizures. qPCR analysis confirmed a range of MeCP2 KO of 5-95% of the cells, and immunostaining of tissue sections indicated mosaic and overall reduction of MeCP2 protein levels and a-tubulin acetylation (Novak et al. 2022). Based on seizure and behavioral screens in RTT tadpoles, we evaluate the tolerability and efficacy of any number of predicted compounds. The top performing drug is vorinostat, a hydroxamic acid pan-Histone Deacetylase inhibitor (HDACi), approved for cutaneous T cell lymphoma (Novak et al., 2022). […]
Using trofinetide as a positive control, we evaluated the feasibility of initiating drug dosing starting at 30 days post-natal (P30), unlike the majority of RTT pre-clinical studies starting before the onset of symptoms. […] We evaluated the comparative efficacy of oral vs. IP dosing of vorinostat in MeCP2-null mice starting at 36 days post-natal (P36), well after the onset of symptoms, to better mimic clinical presentation of RTT patients.

RTT tadpole model = assay: Drug screen in the RTT tadpole model (behavior, survival, seizures, toxicity); type: in vivo, Xenopus; details: seizures as readout
Excerpt: (§2) Briefly, Xenopus embryos at the 4-cell stage were microinjected with Cas9 protein and guide RNA complex aimed at 3 sites of the MeCP2 gene corresponding to DNA binding and the mutation locations of the most severe patient cases. Embryos could develop into free-swimming tadpoles, and no effect on viability was observed relative to controls. Tadpoles presented a spectrum of behavioral phenotypes, including seizures. qPCR analysis confirmed a range of MeCP2 KO of 5-95% of the cells, and immunostaining of tissue sections indicated mosaic and overall reduction of MeCP2 protein levels and a-tubulin acetylation (Novak et al. 2022). Based on seizure and behavioral screens in RTT tadpoles, we evaluate the tolerability and efficacy of any number of predicted compounds. The top performing drug is vorinostat, a hydroxamic acid pan-Histone Deacetylase inhibitor (HDACi), approved for cutaneous T cell lymphoma (Novak et al., 2022). […] These six scores are then summed to provide a cumulative severity score from 0-12 (Guy et al., 2001, 2007).
RTT tadpole transcriptomes were compared against wild-type (WT) sibling transcriptomes using our proprietary BioNav™ software, which ranked the entirety of compounds from the National Institute of Health (NIH) Library of Integrated Network-Based Cellular Signatures (LINCS) database (Keenan et al., 2018) that were predicted to shift a RTT state to a healthy state. The top candidates were downselected to include only FDA-approved drugs and screened in the RTT tadpole model using behavior, survival, and seizures as an efficacy readout, together with toxicity phenotypes. […] Vorinostat was selected for more detailed evaluation in tadpoles and mouse models. […] Ciliary morphology was also normalized by drug treatment across the entire body, and vorinostat reduced Ib4+ inflammatory cells in the GI tract (Novak et al., 2022).

RTT tadpoles (MeCP2 KD) = assay: Tadpole tracking system: swimming behavior of RTT (MeCP2 KD) tadpoles; type: in vivo, Xenopus; details: for swimming pattern of treated RTT tadpoles: n=5 per dish
Method: FIGS. 4A-4F. FIG. 4A) Occupation density plot from tracking tadpoles swimming and resting locations over a 10-minute recording session (n=5 per 10 ml dish, at 30 frames per seconds), where high density means the tadpoles where recorded at that XY coordinate most frequently. FIG. 4A) wild-type tadpoles (WT) normal behavior is to swim along the edge of the dish in an area termed the “outer area”, while the area within the white center circle is termed the “inner area” and is mostly dark. […] Additionally, RTT tadpoles cover less distance in the outer area, preferring to cross the inner area. FIG. 4C) example of multiple parameters derived from the tracking system, highlighting metrics corresponding to behavioral phenotypes. FIG. 4D) one such metric of epoch-based entropy which captures information about the swimming behavior over a recording session and how a group diverges from the others, in this case indicating favorable improvement in RTT tadpole symptoms treated with RVL002 (epoch=15-second). FIG. 4E) one such metric is the inner area circular swimming. Locomotor assays is commonly used in mouse model of neurological diseases, it can also assess the behavior in tadpole models. Both vorinostat and RVL002 reduced the average inner dish circular swimming behavior in KD tadpoles compared to vehicle controls.
as §2
(§3) Using our tadpole tracking system, we evaluated the effect of vorinostat and RVL002 on WT and RTT tadpoles swimming behavior (FIGS. 4A-4F). WT tadpoles spend most of the time swimming along the outside of the dish and only occasionally cross through the center of the dish, while RTT tadpoles swim more erratically and tend to dart through the center of the dish and stop more frequently (FIG. 4A-4B, n=5 per dish). These abnormal swimming patterns could be related to motor irregularities and seizures seen in human RTT patients. […] The entropy captures deviations in swimming behavior, including distance and area explored. […] We compared the gene expression signatures of vorinostat- and RVL002-treated tadpole RTT model animals and wild type controls. In wild type animals, 100% of genes with significant expression changes (fold change >2, p<0.05) due to vorinostat treatment were accounted for by RVL002 treatment. In RTT animals, RVL002 replicated 92.5% of gene expression changes.

[5] = test system: RTT models (MeCP2 deficit); details: cited from earlier work
microtubule = assay: Microtubule polymerization assays; type: biochemical
Mecp2-null male mice [6] = details: cited from earlier work; for efficacy when starting treatment after the onset of symptoms: start P36; for Rett cumulative severity score, head-to-head comparison: older mice with extensive symptoms prior to treatment
tadpole proteome = details: whole organism Thermal Proteome Profiling; cited from earlier work
MeCP2-/y mice [7] = assay: Optomotor assay in MeCP2-/y mice treated with RVL002; type: in vivo; details: 50 mg/kg P.O. daily from P34
Method: (§4) FIGS. 5A-5B. Mice (KO MeCP2^−/y or WT littermates) were treated with 50 mg/kg P.O. RVL002 daily following the onset of severe symptoms at 34 days post-natal (P34).

MeCP2-/y mice [8] = assay: Rett cumulative severity score in MeCP2-/y mice treated with RVL002; type: in vivo; details: 50 mg/kg P.O. daily after onset of severe symptoms (P34), vs vehicle
Method: as §4, §1
Mice (MeCP2-/y or WT littermates) were treated with 50 mg/kg P.O. RVL002 daily following the onset of severe symptoms as determined by the Rett cumulative severity scoring system (Guy et al., 2001, 2007).

RTT tadpoles = assay: Viability measurement in WT and RTT tadpoles; type: in vivo, Xenopus; details: RVL002 100 uM compared with vorinostat 50 uM, n=10 per condition
mecp2-acss3-2KD tadpoles = assay: Tadpole tracking: double knockdown of MeCP2 and ACSS3 (mecp2-acss3-2KD); type: in vivo, Xenopus laevis; details: 50 μM every other day from 6 dpf, recorded at 15 dpf
Method: FIGS. 6A-6C. […] Wild-type (WT), MeCP2 knockdown (mecp2-KD) and double knockdown of MeCP2 and ACSS3 (mecp2-acss3-2KD) tadpoles, were compared in the presence of absence of 50 μM RVL002 added to the swimming media every other day since 6 dpf.
Using our tadpole tracking system, we evaluated the effect of RVL002 on WT, RTT and tadpoles deficient for both MeCP2 and ACSS3 (FIGS. 6A-6C).

HDAC = assay: HDACi activity (statement, no method)
[9] = test system: tadpole RTT model animals and wild type controls; assay: Gene expression signatures of vorinostat- and RVL002-treated tadpoles; type: in vivo, Xenopus
Excerpt: as §3

For `O=C(CCCCCCC(=O)Nc1ccccc1)NO` [Vorinostat, vorinostat], the “overlap of vorinostat with RVL002 in HDAC associated pathways” value ([1]; muscle tissues (FIG. 3D)) was 97.3%, the “release profile after oral dosing” value [2] was “more sustained release of vorinostat at lower concentrations” and the Tmax ([3]; C57BL/6J mice, 50 mg/kg intraperitoneally, mean) was 0.3 h. The “biodistribution, crossing the blood brain barrier” value ([3]; mouse, in vivo, 50 mg/kg) was “does not efficiently cross the blood brain barrier”, the AUC(0-inf) ([3]; mouse, in vivo, ip, 50 mg/kg) was 640 ng·h/mL and the AUC(0-t) ([3]; mouse, in vivo, ip, 50 mg/kg) was 632 ng·h/mL. The Cmax ([3]; mouse, in vivo, ip, 50 mg/kg) was 713 ng/mL, the half-life ([3]; mouse, in vivo, ip, 50 mg/kg) was 1.3 h and the “efficacy by Rett cumulative severity scoring system, 50 vs 100 mg/kg” value (Mecp2-null male mice [4]) was “better efficacy at 50 mg/kg”. For the same molecule, the “Y-maze performance, brain and GI tubulin acetylation normalization, inflammatory cytokine levels, colon goblet cells inflammation” value (Mecp2-null male mice [4]; vorinostat vs trofinetide 75 mg/kg) was “outperformed trofinetide”, the “reversal of RTT symptoms in RTT tadpole screen” value (shortened to “reversal of RTT symptoms”) (RTT tadpole model) was “stronger reversal of RTT symptoms at nontoxic concentrations” and the “reduction in average inner dish swimming compared to vehicle dosed KDs” value (RTT tadpoles (MeCP2 KD); RTT KD tadpoles, 5 μM) was 42%. The “swimming pattern of treated RTT tadpoles” value (RTT tadpoles (MeCP2 KD); RTT tadpoles) was “patterns suggestive of darting and seizure are still observed”, the “abnormal cilia morphology in the olfactory bulb” value ([5]; MeCP2 deficit) was “reversed” and the “Ib4+ inflammatory cells in the GI tract” value ([5]; RTT models) was “reduced”. The “a-tubulin acetylation in brain and elsewhere in the body” value ([5]; RTT models) was “normalized”, the microtubule polymerization (microtubule) was “mild microtubule polymerization effects” and the “efficacy when starting treatment after the onset of symptoms” value (from here on “efficacy when starting treatment”) (Mecp2-null male mice [6]; IP delivery) was “failed to show efficacy”. For the same molecule, the “Rett cumulative severity score, head-to-head comparison” value (Mecp2-null male mice [6]) was “effective improvement”, the “efficacy when starting treatment” value (Mecp2-null male mice [6]; oral dosing) was “improved efficacy” and the “α- and β-tubulins, acetyl CoA synthetase 3, ribosome protein S6 as targets” value (tadpole proteome) was “significant, direct targets”.
With `O=C(O)CCC(=O)Nc1ccccc1` [RVL002, succinanilic acid] the “muscle RNAseq differences in the cluster of HDAC inhibitors (BioNav)” value ([1]; mouse femoral muscle, 50 mg/kg p.o.) was “acts through non-HDAC-mediated pathways”, the “Reactome pathways of genes unique/responding to RVL002” value ([1]; wild-type mice, brain and muscle (Tables 2, 3)) was “MeCP2-pathway-mediated effect” and the optomotor assay (MeCP2-/y mice [7]) was “delayed the progression in severity of behavioral and physiological phenotypes”. The “RVL002/vorinostat Ratio of T1/2” value ([3]; mouse, in vivo) was 2.6, the “RVL002/vorinostat Ratio of Tmax” value ([3]; mouse, in vivo) was 0.8 and the “biodistribution, crossing the blood brain barrier” value ([3]; mouse, in vivo, 50 mg/kg) was “better biodistribution including in crossing the blood brain barrier”. For the same molecule, the AUC(0-inf) ([3]; mouse, in vivo, ip, 50 mg/kg) was 11600 ng·h/mL, the AUC(0-t) ([3]; mouse, in vivo, ip, 50 mg/kg) was 11800 ng·h/mL and the Cmax ([3]; mouse, in vivo, ip, 50 mg/kg) was 12300 ng/mL. For the same molecule, the Tmax ([3]; mouse, in vivo, ip, 50 mg/kg) was 0.3 h, the half-life ([3]; mouse, in vivo, ip, 50 mg/kg) was 3.3 h and the “Rett cumulative severity score” value (MeCP2-/y mice [8]) was “delayed the progression in severity of behavioral and physiological phenotypes; also recorded: significantly reduce the severity of the Rett syndrome phenotypes”. The “tolerability and viability of RTT tadpoles” value (RTT tadpoles) was “well tolerated and improves the viability of RTT tadpoles”, the “response across exploratory behavior, swimming velocity and number of tadpoles in a school” value (mecp2-acss3-2KD tadpoles) was “did not respond” and the “reduction in inner dish circular swimming compared to vehicle dosed KDs” value (RTT tadpoles (MeCP2 KD); RTT KD tadpoles, 50 μM) was 78%. The “epoch-based entropy of swimming behavior” value (RTT tadpoles (MeCP2 KD); RTT tadpoles, 15-second epoch) was “rescue the behavior of RTT tadpoles”, the “swimming pattern of treated RTT tadpoles” value (RTT tadpoles (MeCP2 KD); RTT tadpoles) was “adopt more circular motion and stop less frequently” and the HDACi activity (HDAC) was “lacks HDACi activity”. The “gene expression changes of vorinostat replicated by RVL002” value ([9]; RTT animals) was 92.5% and the “genes with significant expression changes due to vorinostat treatment accounted for by RVL002 treatment” value ([9]; wild type animals, fold change >2, p<0.05) was 100%.
In the case of `C[C@@]1(C(=O)N[C@@H](CCC(=O)O)C(=O)O)CCCN1C(=O)CN` [Trofinetide, trofinetide] (H-Gly-[αMeP]-Glu-OH), the “reversal of RTT symptoms” value (RTT tadpole model) is listed as “showed efficacy, albeit lower than the predicted drugs”, the “Rett cumulative severity score, head-to-head comparison” value (Mecp2-null male mice [6]) is listed as “did not improve the cumulative severity score” and the “efficacy when starting treatment” value (Mecp2-null male mice [6]; trofinetide) is listed as “failed to show efficacy”.
In the case of ivermectin, the “reversal of RTT symptoms” value (RTT tadpole model) is given as “stronger reversal of RTT symptoms at nontoxic concentrations”, the microtubule polymerization (microtubule) is given as “mild microtubule polymerization effects” and the “α- and β-tubulins, acetyl CoA synthetase 3, ribosome protein S6 as targets” value (tadpole proteome) is given as “significant, direct targets”.
